Source: ChEMBL document CHEMBL1833893, “Synthesis and anticonvulsant activity of new 1-[2-oxo-2-(4-phenylpiperazin-1-yl)ethyl]pyrrolidine-2,5-diones” (Bioorg Med Chem Lett, 2011)
Calls of active or inactive are those of the source. The calls are words filed in the database; no cut-off is given here.

How the values were obtained:
Mus musculus [1] = assay: Anticonvulsant activity in ip dosed albino CF1 mouse assessed as protection against maximal electroshock-induced seizures after 0.5 hrs; assay type: functional; conditions: read-out: MED
Mus musculus [2] = assay: Neurotoxicity in albino CF1 mouse assessed as motor impairment at 300 mg/kg, ip after 0.5 hrs by rotarod test; assay type: toxicity, organism-based; parameters: dose 300 mg/kg, route intraperitoneal; conditions: in vivo
Mus musculus [3] = assay: Anticonvulsant activity in albino CF1 mouse assessed as protection against subcutaneous pentylenetetrazole-induced seizures at 300 mg/kg, ip after 0.5 hrs; assay type: functional, organism-based; parameters: dose 300 mg/kg
Mus musculus [4] = assay: Neurotoxicity in albino CF1 mouse assessed as motor impairment at 300 mg/kg, ip after 4 hrs by rotarod test; assay type: toxicity, organism-based; parameters: dose 300 mg/kg, route intraperitoneal; conditions: in vivo
Mus musculus [5] = assay: Anticonvulsant activity in albino CF1 mouse assessed as protection against maximal electroshock-induced seizures at 300 mg/kg, ip after 4 hrs; assay type: functional, organism-based; parameters: dose 300 mg/kg
Mus musculus [6] = assay: Anticonvulsant activity in albino CF1 mouse assessed as protection against subcutaneous pentylenetetrazole-induced seizures at 300 mg/kg, ip after 4 hrs; assay type: functional, organism-based; parameters: dose 300 mg/kg
Rattus norvegicus [7] = assay: Anticonvulsant activity in Sprague-Dawley rat assessed as protection against maximal electroshock-induced seizures at 30 mg/kg, po after 0.25 hrs; assay type: functional
Mus musculus [8] = assay: Anticonvulsant activity in albino CF1 mouse assessed as protection against electrically-induced seizure at 100 mg/kg, ip after 0.25 hrs by 6Hz psychomotor seizure test; assay type: functional
Mus musculus [9] = assay: Anticonvulsant activity in albino CF1 mouse assessed as protection against electrically-induced seizure at 100 mg/kg, ip after 0.5 hrs by 6Hz psychomotor seizure test; assay type: functional
Rattus norvegicus [10] = assay: Anticonvulsant activity in Sprague-Dawley rat assessed as protection against maximal electroshock-induced seizures at 30 mg/kg, po after 0.5 hrs; assay type: functional
Rattus norvegicus [11] = assay: Anticonvulsant activity in Sprague-Dawley rat assessed as protection against maximal electroshock-induced seizures at 30 mg/kg, po after 4 hrs; assay type: functional
Mus musculus [12] = assay: Anticonvulsant activity in albino CF1 mouse assessed as protection against electrically-induced seizure at 100 mg/kg, ip after 1 hr by 6Hz psychomotor seizure test; assay type: functional
Mus musculus [13] = assay: Anticonvulsant activity in ip dosed albino CF1 mouse assessed as protection against subcutaneous pentylenetetrazole-induced seizures after 0.5 hrs; assay type: functional; conditions: albino CF1, 0.5 h, read-out: MED
Rattus norvegicus [14] = assay: Anticonvulsant activity in Sprague-Dawley rat assessed as protection against maximal electroshock-induced seizures at 30 mg/kg, po after 2 hrs; assay type: functional
Mus musculus [15] = assay: Neurotoxicity in ip dosed albino CF1 mouse assessed as minimum dose required to cause motor impairment after 0.5 hrs by rotarod test; assay type: toxicity, organism-based; conditions: in vivo
Rattus norvegicus [16] = assay: Anticonvulsant activity in Sprague-Dawley rat assessed as protection against maximal electroshock-induced seizures at 30 mg/kg, po after 1 hr; assay type: functional
Mus musculus [17] = assay: Anticonvulsant activity in ip dosed albino CF1 mouse assessed as protection against maximal electroshock-induced seizures after 4 hrs; assay type: functional; conditions: read-out: MED
Mus musculus [18] = assay: Neurotoxicity in ip dosed albino CF1 mouse assessed as minimum dose required to cause motor impairment after 4 hrs by rotarod test; assay type: toxicity, organism-based; conditions: in vivo
Mus musculus [19] = assay: Anticonvulsant activity in albino CF1 mouse assessed as protection against electrically-induced seizure at 100 mg/kg, ip after 2 hrs by 6Hz psychomotor seizure test; assay type: functional
Mus musculus [20] = assay: Anticonvulsant activity in albino CF1 mouse assessed as protection against electrically-induced seizure at 100 mg/kg, ip after 4 hrs by 6Hz psychomotor seizure test; assay type: functional
Mus musculus [21] = assay: Anticonvulsant activity in albino CF1 mouse assessed as protection against maximal electroshock-induced seizures at 300 mg/kg, ip after 0.5 hrs; assay type: functional, organism-based; parameters: dose 300 mg/kg
Mus musculus [22] = assay: Anticonvulsant activity in ip dosed albino CF1 mouse assessed as protection against subcutaneous pentylenetetrazole-induced seizures after 4 hrs; assay type: functional; conditions: albino CF1, 4 h, read-out: MED

Compound	minimal effective dose (Mus musculus [1]) [mg/kg]	Activity (Mus musculus [2])	Activity (Mus musculus [3])	Activity (Mus musculus [4])	Activity (Mus musculus [5])	Activity (Mus musculus [6])	Activity (Rattus norvegicus [7])	Activity (Mus musculus [8]; route intraperitoneal) [%]	Activity (Mus musculus [9]; route intraperitoneal) [%]	Activity (Rattus norvegicus [10])	Activity (Rattus norvegicus [11])	Activity (Mus musculus [12]; route intraperitoneal) [%]	minimal effective dose (Mus musculus [13]) [mg/kg]	Activity (Rattus norvegicus [14])	MTC (Mus musculus [15]) [mg/kg]	Activity (Rattus norvegicus [16])	minimal effective dose (Mus musculus [17]) [mg/kg]	also measured
CC1(C)CC(=O)N(CC(=O)N2CCN(c3ccccc3Cl)CC2)C1=O	300	Non-toxic	inactive	Non-toxic	inactive	inactive												
CC1(C)CC(=O)N(CC(=O)N2CCN(c3ccc(F)cc3)CC2)C1=O	100			Non-toxic		inactive	inactive	100	100	inactive	inactive	75	300	inactive	300	inactive	100	
O=C(CN1C(=O)CCC1=O)N1CCN(c2ccc(Cl)cc2)CC1	100	Non-toxic				inactive	inactive			inactive			300			inactive	300	Activity (Mus musculus [8]): inactive; MTC (Mus musculus [18]): 300 mg/kg; Activity (Mus musculus [9]): inactive; Activity (Mus musculus [19]): inactive; Activity (Mus musculus [12]): inactive; Activity (Mus musculus [20]): inactive
O=C(CN1C(=O)CCC1=O)N1CCN(c2ccccc2F)CC1	300			Non-toxic		inactive							300		300			
CCC1(CC)CC(=O)N(CC(=O)N2CCN(c3ccccc3)CC2)C1=O		Non-toxic	inactive	Non-toxic	inactive	inactive												Activity (Mus musculus [21]): inactive
CC1CC(=O)N(CC(=O)N2CCN(c3ccccc3)CC2)C1=O (stereo not drawn)	300			Non-toxic	inactive								300		300			minimal effective dose (Mus musculus [22]): 300 mg/kg
CCC1(CC)CC(=O)N(CC(=O)N2CCN(c3ccccc3Cl)CC2)C1=O	300		inactive	Non-toxic	inactive	inactive									300			
O=C(CN1C(=O)CCC1=O)N1CCN(c2cccc(C(F)(F)F)c2)CC1	100		inactive				inactive	100	100		75%	75		75%	100	75%	100	MTC (Mus musculus [18]): 300 mg/kg; Activity (Mus musculus [19]; route intraperitoneal): 100%; minimal effective dose (Mus musculus [22]): 300 mg/kg; Activity (Mus musculus [20]; route intraperitoneal): 75%
O=C1NC(=O)C(c2ccccc2)(c2ccccc2)N1 [PHENYTOIN]	30		inactive			inactive				100%	75%			75%	100	75%	30	MTC (Mus musculus [18]): 100 mg/kg
CC1(C)CC(=O)N(CC(=O)N2CCN(c3ccccc3F)CC2)C1=O	300	Non-toxic	inactive	Non-toxic	inactive	inactive												
CC1(C)CC(=O)N(CC(=O)N2CCN(c3cccc(C(F)(F)F)c3)CC2)C1=O	100	Non-toxic	inactive	Non-toxic		inactive			75	inactive	inactive	75		inactive		inactive	100	
CC1CC(=O)N(CC(=O)N2CCN(c3ccc(Cl)cc3)CC2)C1=O (stereo not drawn)	300	Non-toxic	inactive			inactive		75		75%	75%	75		75%		75%	100	MTC (Mus musculus [18]): 300 mg/kg
CC1CC(=O)N(CC(=O)N2CCN(c3ccccc3Cl)CC2)C1=O (stereo not drawn)	300			Non-toxic	inactive	inactive	75%	100	100	inactive	inactive		300	inactive	300	inactive		Activity (Mus musculus [19]): inactive; Activity (Mus musculus [20]): inactive
O=C(CN1C(=O)CCC1=O)N1CCN(c2ccccc2)CC1	300	Non-toxic	inactive	Non-toxic	inactive	inactive												
CC1CC(=O)N(CC(=O)N2CCN(c3cccc(C(F)(F)F)c3)CC2)C1=O (stereo not drawn)	100					inactive	inactive	100	100	inactive		100	300		300		100	MTC (Mus musculus [18]): 300 mg/kg; Activity (Mus musculus [19]; route intraperitoneal): 75%; Activity (Mus musculus [20]): inactive
O=C(CN1C(=O)CCC1=O)N1CCN(c2ccc(F)cc2)CC1	300	Non-toxic	inactive	Non-toxic		inactive											300	
CC1CC(=O)N(CC(=O)N2CCN(c3ccccc3F)CC2)C1=O (stereo not drawn)	300		inactive	Non-toxic		inactive									300		300	
CC1(C)CC(=O)N(CC(=O)N2CCN(c3ccc(Cl)cc3)CC2)C1=O	100			Non-toxic		inactive	inactive	100	100	inactive	100%	100	300		300	inactive	100	
CCC1(CC)CC(=O)N(CC(=O)N2CCN(c3ccc(Cl)cc3)CC2)C1=O		Non-toxic	inactive	Non-toxic		inactive											300	Activity (Mus musculus [21]): inactive
CCC1(CC)CC(=O)N(CC(=O)N2CCN(c3cccc(C(F)(F)F)c3)CC2)C1=O	300	Non-toxic	inactive	Non-toxic		inactive											300	
O=C(CN1C(=O)CCC1=O)N1CCN(c2ccccc2Cl)CC1	100			Non-toxic	inactive	inactive	inactive	75		inactive	inactive		300	inactive	300	inactive		Activity (Mus musculus [19]): inactive; Activity (Mus musculus [12]): inactive; Activity (Mus musculus [20]): inactive
CCC1(C)CC(=O)NC1=O (stereo not drawn) [ETHOSUXIMIDE]		Non-toxic		Non-toxic	inactive								100					minimal effective dose (Mus musculus [22]): 300 mg/kg; Activity (Mus musculus [21]): inactive
CC1CC(=O)N(CC(=O)N2CCN(c3ccc(F)cc3)CC2)C1=O (stereo not drawn)	300	Non-toxic	inactive	Non-toxic		inactive			75			75					100	Activity (Mus musculus [20]): inactive
